For one data set, the system named is pooled human hepatocytes. Kind of data set: Human hepatocyte clearance study. In kind it is in vitro ADME. Conditions: human hepatocytes; for Human Hepatocyte Remaining Percentage @ 120 min: 0.5×10^6 viable cells/mL. As for the experimental part: (§1) The in vitro human hepatocyte clearance of compounds described here was studied using pooled human hepatocytes purchased from BioreclamationIVT (Westbury, N.Y., Cat #X008001, Lot #TQJ). The assay was conducted according to manufacturer's instruction. Briefly, 10 mM stock solutions of test compounds and positive control (Verapamil) were prepared in 100% DMSO. Thawing media (50 mL) used in the study consists of: 31 mL Williams E medium (GIBCO Cat #12551-032); 15 mL isotonic percoll (GE Healthcare Cat #17-0891-09); 500 uL 100× GlutaMax (GIBCO Cat #35050); 750 uL HEPES (GIBCO Cat #15630-080); 2.5 mL FBS (Corning Cat #35-076-CVR); 50 uL human insulin (GIBCO Cat #12585-014) and 5 uL dexamethasone (NICPBP). Incubation media is made of Williams E medium supplemented with 1× GlutaMax. Both thawing medium and incubation medium (serum-free) were placed in a 37° C. water bath for at least 15 minutes prior to use. Compound stock solutions were diluted to 100 μM by combining 198 μL of 50% acetonitrle/50% water and 2 μL of 10 mM stock solution. Verapamil was use as positive control in the assay. Vials of cryopreserved hepatocytes were removed from storage and thawed in a 37° C. water bath with gentle shaking. Contents of the vial were poured into the 50 mL thawing medium conical tube. Vials were centrifuged at 100 g for 10 minutes at room temperature. Thawing medium was aspirated and hepatocytes were re-suspended with serum-free incubation medium to yield ˜1.5×10^6 cells/mL. Hepatocyte viability and density were counted using a Trypan Blue exclusion, and then cells were diluted with serum-free incubation medium to a working cell density of 0.5×10^6 viable cells/mL. Then, a portion of the hepatocytes at 0.5×10^6 viable cells/mL was boiled for 5 minutes prior to adding to the plate as negative control to eliminate the enzymatic activity so that little or no substrate turnover should be observed. The boiled hepatocytes were used to prepare negative samples. Aliquots of 198 μL hepatocytes were dispensed into each well of a 96-well non-coated plate. The plate was placed in the incubator on an orbital shaker at 500 rpm for approximately 10 minutes. Aliquots of 2 μL of the 100 μM test compound or positive control were added into respective wells of the non-coated 96-well plate to start the reaction. This assay was performed in duplicate. The plate was incubated in the incubator on an orbital shaker at 500 rpm for the designated time points. Twenty-five microliter of contents were transferred and mixed with 6 volumes (150 μL) of cold acetonitrile with IS (200 nM imipramine, 200 nM labetalol and 200 nM diclofenac) to terminate the reaction at time points of 0, 15, 30, 60, 90 and 120 minutes. Samples were centrifuged at 3,220 g for 25 minutes and aliquots of 150 μL of the supernatants were used for LC-MS/MS analysis. For data analysis, all calculations were carried out using Microsoft Excel. Peak areas were determined from extracted ion chromatograms. The in vitro half-life (t1/2) of parent compound was determined by regression analysis of the percent parent disappearance vs. time curve. The in vitro half-life (in vitro ti) was determined from the slope value: in vitro t1/2=0.693/k. […] Scaling factors for in vivo intrinsic clearance prediction using human hepatocytes are listed as: liver weight (g liver/kg body weight): 25.7; hepatocyte concentration (10^6 cells/g liver): 99; scaling factor: 2544.3.

The next data set deals with MDCK-MDR1 cells. The data set is described as follows: P-glycoprotein substrate potential / permeability in MDR1-transfected MDCK cells. Format: in vitro ADME. As for the experimental part:
(§2) MDCK-MDR1 cells were seeded into 96-well HTS Transwell plate at the density of 5.45×10^5/cm^2. Cells were cultivated for 4-7 days before the transport assay. Transepithelial electrical resistance (TEER) of MDCK-MDR1 monolayer was measured before the experiment with the Millicell Epithelial Volt-Ohm measuring system.
(§3) Transport assay: Cell monolayers were pre-incubated in transport medium (TM, HBSS with 25 mM HEPES, pH 7.4) for 30 min at 37° C. After preincubation, the study was initiated by adding the test compound to the donor side and TM to the receiver side. Compound transport was assessed at 1 μM in two directions (apical, AP to basolateral, BL and BL to AP) and the study was carried out in the presence and absence of P-gp inhibitor verapamil in both AP and BL compartments. After two hours incubation, aliquots of 50 μL from donor or receiver side were removed and mixed with 4 volumes of acetonitrile containing internal standards (200 nM alprazolam, 200 nM labetalol, 2 μM ketoprofen). Samples were analyzed by UPLC-MS/MS. All incubations were performed in duplicate. After the transport experiment, Lucifer Yellow leakage was measured in a fluorescence plate reader at 485 nm excitation and 530 nm emission.
(§4) Data Analysis: All calculations were carried out using Microsoft Excel. Peak areas are determined from extracted ion chromatograms.
(§5) The apparent permeability coefficient (Papp), in units of centimeter per second, was calculated for MDCK-MDR1 drug transport assays using the following equation: […]
(§6) Where VA is the volume (in mL) in the acceptor well, Area is the surface area of the membrane (0.143 cm2 for Transwell-96 Well Permeable Supports), and time is the total transport time in seconds.
(§7) The efflux ratio was determined using the following equation: […]
(§8) Where Papp (B-A) indicates the apparent permeability coefficient in basolateral to apical direction, and Papp (A-B) indicates the apparent permeability coefficient in apical to basolateral direction.

Another data set has as its target TGFβR1 (Homo sapiens (Human), UniProt P36897). Kind of data set: TGFβR1 kinase inhibition assay (ADP-Glo Kinase Assay). Conditions: 40 nM TGFβR1 in 2x enzyme mix, 5.4 μM ATP in 2x substrate mix, 120 min RT. In kind it is biochemical. As for the experimental part:
TGFβR1 kinase assay was performed according to the instruction manual of the ADP-Glo™ Kinase Assay kit provided by Promega. Prepare 1× Kinase buffer (50 mM Tris pH7.5, 0.1% BSA, 10 mM MgCl2, 1 mM DTT). Before activation reaction was started, Compounds were dissolved in DMSO and make 100× solution with 3-fold serial dilution for a total of 10 concentrations. Transfer 50 nL compounds to 384-well plate according to plate map using the automated liquid handler. […] Add 5 μL ADP-Glo Reagent to terminate the kinase reaction and deplete the remaining ATP, incubate at RT for 60 minutes. Add 10 μL Kinase Detection Reagent to convert ADP to ATP and allow the newly synthesized ATP to be measured using a luciferin reaction, incubate at RT for 30 minutes. Collect luminescence data with Envision.

For another data set, the target named is TGFβR2 (Homo sapiens (Human), UniProt P37173). The data set is described as follows: TGFβR2 kinase inhibition assay (ADP-Glo). Conditions: 10 uM ATP, 120 min room temperature. Format: biochemical. As for the experimental part: The TGFβR2 enzyme reaction was carried out as follows: 50 nL of compound in DMSO (or DMSO controls) were stamped into 384 white, low-volume plates. 2.5 μL of 2× enzyme solution (final enzyme concentration was 3 ng/uL in 40 mMTris, 7.5; 20 mM MgCl2; 0.1 mg/mL BSA; 1 mM DTT) was dispensed into assay plate. The plate was then sealed and spun at 1000 rpm for 30 s and incubated at room temperature for 10 min. Followed by addition of 2.5 μL of 2× substrate solution that contains both ATP (to make a final concentration of 10 uM) and TGFβR2 substrate (final concentration of 0.2 ug/uL). The plate was then sealed and spun at 1000 rpm for 30 s and the reaction was then incubated at room temperature for 120 min. After that 5 μL ADP-Glo™ Reagent was added into the assay wells to stop the reaction and deplete unconsumed ATP for 40 min at room temperature; then, 10 μL of Detection Reagent was added into the assay wells, followed by 40 min incubation to develop luminescence. The luminescence signal was then collected on Envision 2104 plate reader.
Chain of TGFβR2 (P37173 23-567): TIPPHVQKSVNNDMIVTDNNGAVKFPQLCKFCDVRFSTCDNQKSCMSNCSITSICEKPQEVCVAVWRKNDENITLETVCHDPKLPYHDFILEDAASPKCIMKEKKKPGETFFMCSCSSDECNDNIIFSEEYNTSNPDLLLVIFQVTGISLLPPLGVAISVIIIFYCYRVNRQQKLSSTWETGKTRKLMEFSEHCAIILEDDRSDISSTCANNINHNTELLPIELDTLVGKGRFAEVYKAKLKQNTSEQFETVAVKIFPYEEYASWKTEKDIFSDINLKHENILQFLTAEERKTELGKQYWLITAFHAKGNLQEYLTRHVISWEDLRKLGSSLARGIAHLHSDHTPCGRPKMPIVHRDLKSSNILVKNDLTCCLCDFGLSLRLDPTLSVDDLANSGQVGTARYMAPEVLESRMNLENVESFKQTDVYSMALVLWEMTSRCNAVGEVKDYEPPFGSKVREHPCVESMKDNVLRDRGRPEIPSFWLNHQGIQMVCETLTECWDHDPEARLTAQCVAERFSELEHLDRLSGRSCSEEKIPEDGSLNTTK

Data set [1] in a line: Human hepatocyte clearance study. In kind it is in vitro ADME. The following applies: pooled cryopreserved human hepatocytes (suspension); for hepatocyte CLint at 1 µM / half-life at 1 µM: human; for hepatocyte CLint at 1 µM: read-out: Human In vitro Clint; for half-life at 1 µM: read-out: Human In vitro T1/2; for CLint scaled at 1 µM: human hepatocytes, scaling factor 2544.3, read-out: Human Scale-up Clint. As for the experimental part: as §1

The subject of a further data set is P-glycoprotein (MDR1). The data set is described as follows: P-glycoprotein substrate potential / permeability in MDR1-transfected MDCK cells. In kind it is in vitro ADME. The following applies: dog, pH 7.4; for Papp A→B at 2 h, 1 µM / Papp B→A at 2 h, 1 µM: MDCK-MDR1, 1 μM, two hours; for Papp A→B at 2 h, 1 µM: apical to basolateral; for Papp B→A at 2 h, 1 µM: basolateral to apical; for efflux ratio at 2 h, 1 µM: MDCK-MDR1, Papp (B-A)/Papp (A-B). As for the experimental part: as §2, §3, §4, §5, §6, §7, §8

This note sets out measurements from US11691981B2, “Heterocyclic compounds, preparation methods therefor, and methods of uses thereof” (INVENTISBIO CO., LTD., priority 2019, dated 2023).

pIC50: −log10 of the molar value.

Chain of TGFβR1 (P36897 34-503): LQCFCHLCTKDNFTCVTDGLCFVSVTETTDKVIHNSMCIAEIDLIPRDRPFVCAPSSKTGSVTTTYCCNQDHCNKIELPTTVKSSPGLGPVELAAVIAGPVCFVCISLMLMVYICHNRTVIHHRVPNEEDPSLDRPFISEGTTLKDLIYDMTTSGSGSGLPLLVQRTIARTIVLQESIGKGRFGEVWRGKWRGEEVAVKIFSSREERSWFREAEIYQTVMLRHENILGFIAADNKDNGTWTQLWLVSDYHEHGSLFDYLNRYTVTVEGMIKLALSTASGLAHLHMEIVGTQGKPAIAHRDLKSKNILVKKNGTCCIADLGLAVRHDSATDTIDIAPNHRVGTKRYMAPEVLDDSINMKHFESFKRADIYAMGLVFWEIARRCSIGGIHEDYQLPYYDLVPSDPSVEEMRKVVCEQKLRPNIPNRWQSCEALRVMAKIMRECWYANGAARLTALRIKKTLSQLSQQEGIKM

Broadly, the pIC50 is −log10 of the IC50, conventionally taken in molar units. The low end stands for a large IC50, the high end for a small IC50. Take `CC(C)(O)c1cc(Nc2cc(Oc3cc(C(F)(F)F)nn3C3CCOCC3)ccn2)ccn1` [Compound 2]: in the data set on pooled human hepatocytes, the “Human In vitro Clint” value came out at 5.6 μL/min/10^6 cells, the “Human In vitro T1/2” value was 4.1 h and the “Human Hepatocyte Remaining Percentage @ 120 min” value is recorded as 72%. Besides, the “Human Scale-up Clint” value with pooled human hepatocytes (scaling factor 2544.3) turned out to be 14.3 mL/min/kg. The “Papp (A-B)” value in the data set with MDCK-MDR1 cells (MDCK-MDR1, 1 μM, apical to basolateral, two hours) was 4.95 10^−6, cm/s. Also, the “Papp (B-A)” value in the data set with MDCK-MDR1 cells (MDCK-MDR1, 1 μM, basolateral to apical, two hours) was 14.87 10^−6, cm/s. In addition, in the data set with MDCK-MDR1 cells (MDCK-MDR1, Papp (B-A)/Papp (A-B)), the “Efflux Ratio” value worked out at 3.00. Moreover, at TGFβR1, the pIC50 is 7.28.
For orientation: Papp A→B means how fast a substance crosses the layer from the apical side. A high value points to fast passage. As a reminder, the Papp B→A is how fast a substance crosses the layer from the basolateral side. As a reminder, the efflux ratio is a quotient of directional permeabilities that is used to spot active efflux. The molecule `CC(C)(O)c1ccc(Nc2cc(Oc3cc(C(F)(F)F)nn3C3CCOCC3)ccn2)cn1` [Compound 11] showed a negative logarithm of the IC50 (pIC50) against TGFβR2 below 4.00. For the same molecule, the “Human Hepatocyte Remaining Percentage @ 120 min” value with pooled human hepatocytes is reported as 71%. Moreover, in data set [1], the hepatocyte CLint at 1 µM turned out to be 5.7 µL/min/1e6 cells, the half-life at 1 µM amounted to 4.03 h and the CLint scaled at 1 µM is 14.6 mL/min/kg. In the data set on P-glycoprotein (MDR1), the Papp A→B at 2 h, 1 µM turned out to be 7.38 ×10⁻⁶ cm/s; the apparent permeability from basolateral to apical (Papp B→A) at 2 h, 1 µM came to 6.24 ×10⁻⁶ cm/s; the efflux ratio at 2 h, 1 µM stood at 0.85. Further, at TGFβR1, the negative-log IC50 (pIC50) was 7.62.
At TGFβR2, `NS(=O)(=O)c1ccc(Nc2cc(Oc3cc(C(F)(F)F)nn3C3CCOCC3)ccn2)cc1` [Compound 12] gave a pIC50 below 4.00. Also, the “Human Hepatocyte Remaining Percentage @ 120 min” value with pooled human hepatocytes is 64%. In addition, in data set [1], the hepatocyte CLint at 1 µM worked out at 7.7 µL/min/1e6 cells, the half-life at 1 µM was 3 h and the CLint scaled at 1 µM was determined as 19.6 mL/min/kg. On TGFβR1, this molecule gave a pIC50 of 7.55.
Consider `NS(=O)(=O)c1ccc(Nc2cc(Oc3cc(C4CC4)nn3C3CC3)ccn2)cc1` [Compound 13], for which the negative logarithm of the IC50 (pIC50) against TGFβR2 is below 4.00. In addition, the “Human Hepatocyte Remaining Percentage @ 120 min” value with pooled human hepatocytes worked out at 65%. In addition, in data set [1], the hepatocyte CLint at 1 µM came out at 7.5 µL/min/1e6 cells, the half-life at 1 µM was 3.08 h and the CLint scaled at 1 µM is 19 mL/min/kg. At TGFβR1, this molecule had a negative logarithm of the IC50 (pIC50) of 7.36.
As to `CC(C)(O)c1cc(Nc2cc(Oc3cccnc3C3CCOCC3)ccn2)ccn1` [Compound 54], the pIC50 at TGFβR2 is below 4.00. Also, in the data set on pooled human hepatocytes, the “Human Hepatocyte Remaining Percentage @ 120 min” value was 61%. Further, in data set [1], the hepatocyte CLint at 1 µM was 6.8 µL/min/1e6 cells, the half-life at 1 µM amounted to 3.38 h and the CLint scaled at 1 µM is 17.4 mL/min/kg. This molecule also showed a pIC50 against TGFβR1 of 7.25.
The molecule `Cc1ccc(Oc2ccnc(Nc3ccnc(C(C)(C)O)c3)c2)c(C)n1` [Compound 57] showed a pIC50 at TGFβR2 below 4.00. Besides, in the data set on pooled human hepatocytes, the “Human Hepatocyte Remaining Percentage @ 120 min” value is recorded as 89%. In data set [1], the hepatocyte CLint at 1 µM was 2.4 µL/min/1e6 cells, the half-life at 1 µM worked out at 9.73 h and the CLint scaled at 1 µM was found to be 6 mL/min/kg. In the data set on P-glycoprotein (MDR1), the Papp A→B at 2 h, 1 µM came out at 12.4 ×10⁻⁶ cm/s; the Papp B→A at 2 h, 1 µM turned out to be 18 ×10⁻⁶ cm/s; the efflux ratio at 2 h, 1 µM worked out at 1.46. For the same molecule, the pIC50 at TGFβR1 was 7.68.
Regarding `CC(C)(O)c1cc(Nc2cc(Oc3cn(C4CC4)nc3C3CCOCC3)ccn2)ccn1` [Compound A, 2-(4-((4-((1-cyclopropyl-3-(tetrahydro-2H-pyran-4-yl)-1H-pyrazol-4-yl)oxy)pyridin-2-yl)amino)pyridin-2-yl)propan-2-ol, reference compound], the “Human Hepatocyte Remaining Percentage @ 120 min” value with pooled human hepatocytes is 48%. In addition, in data set [1], the hepatocyte CLint at 1 µM turned out to be 12.5 µL/min/1e6 cells, the half-life at 1 µM amounted to 1.85 h and the CLint scaled at 1 µM was determined as 31.7 mL/min/kg. In the data set on P-glycoprotein (MDR1), the apical-to-basolateral permeability (Papp A→B) at 2 h, 1 µM was 2.75 ×10⁻⁶ cm/s; the Papp B→A at 2 h, 1 µM was determined as 37.8 ×10⁻⁶ cm/s; the efflux ratio at 2 h, 1 µM was 13.7.
